Measurements reported in PubChem BioAssay AID1963870 (Molecular Pharmacology Branch, DTP, NCI, 2024).
pIC50: −log10 of the molar value.

System: 292921-168-R-J2-PDC KRAS tumor spheroid viability
Assay: Anticancer human tumor 292921-168-R-J2-PDC patient-derived pancreatic carcinoma cell line growth inhibition [KRAS2]
Settings: spheroids with HUVEC and MSC; for pIC50: curve of first compound; for viability, T/C: stronger effect = lower value
Description: Multicellular complex tumor spheroid response to RAS pathway inhibitors in combination with a targeted agents in patient-derived cell lines with oncogenic KRAS variants from multiple cancer types
A high-throughput screen of multi-cell type tumor spheroids was designed to identify active combinations of targeted small molecules and KRAS pathway inhibitors. Complex spheroids include a stromal component modeled by human endothelial cells (HUVEC) and fibroblasts modeled by human mesenchymal stem cells (MSCs). The concentration ranges selected for each drug and investigational agent were based upon clinically achievable concentrations if the clinical Cmax of the agent was known.
Compounds. The drugs and investigational agents: BI-3406 (NSC825286), BAY-293 (NSC824723), batoprotafib (TNO155; NSC825523), sotorasib (AMG 510; NSC818433), MRTX1257 (NSC819558), elimusertib (BAY 1895344; NSC800525), molibresib (GSK525762; NSC774829), temuterkib (LY3214996; NSC803410), venetoclax (NSC766270), alisertib (NSC759677), olaparib (NSC753686), talazoparib (NSC767125), erdafitinib (NSC781556), ipatasertib (NSC767898), cabozantinib (NSC761068), nintedanib (NSC756659), abemaciclib (NSC768073), docetaxel (NSC628503), trametinib (NSC758246), and sapanisertib (NSC764658) were obtained from the National Cancer Institute (NCI) Developmental Therapeutics Program Chemical Repository. The FDA-approved anticancer drug set is available from the Developmental Therapeutics Program. […] The stock solutions were prepared in dimethyl sulfoxide (DMSO, Sigma-Aldrich, St. Louis, MO, cat. D2650) at 800-fold the tested concentration and stored at -70 degrees C prior to their use. All drugs and investigational agents were tested over a range starting from a high concentration at or near the clinical Cmax and decreasing in half-log increments. If the clinical Cmax for an agent had not been determined, the highest concentration tested was 10 microM.
Cell Culture. All cells were maintained in an incubator at 37 degrees C and 5% CO2 with 95% humidity. The PDC lines were cultured according to standard operating procedures established by the NCI PDMR (https://pdmr.cancer.gov/sops/default.htm). Briefly, all PDCs were thawed and cultured in Matrigel-coated flasks prepared with a working solution of 1X Ham's F-12 nutrient mix, without supplementation (Invitrogen, Waltham, MA, cat. 11765054), 100 U/mL penicillin-streptomycin (Invitrogen, cat. 15140122), and 2.5% Matrigel (Corning Inc., Corning, NY, cat. 354248) for the first three passages. All PDCs were cultured in complete DMEM/F-12 media containing advanced DMEM/F-12 (Invitrogen, cat. 12634028), 4.9% defined fetal bovine serum, heat inactivated (HyClone Laboratories Inc., Logan, UT, cat. SH30070.03HI), 389 ng/mL hydrocortisone (Sigma-Aldrich, cat. H4001), 9.7 ng/mL human EGF recombinant protein (Invitrogen, cat. PHG0313), 23.4 microg/mL adenine (Sigma-Aldrich, cat. A2786), 97.3 U/mL penicillin-streptomycin (Invitrogen, cat. 15140122), 1.9 mM L-glutamine (Invitrogen, cat. 25030081), and 9.7 microM Y-27632 dihydrochloride (Tocris Bioscience, Bristol, United Kingdom, cat. 1254). The PDCs were cultured in complete DMEM/F12 media without 9.7 microM Y-27632 dihydrochloride for at least two passages prior to the screen. The established cell line HOP-62 was cultured in RPMI 1640 medium, HEPES (Invitrogen, cat. 22400105) with 10% defined fetal bovine serum (HyClone Laboratories Inc., cat. SH30070.03) and 2 mM L-glutamine (Invitrogen, cat. 25030081). The pooled donor HUVEC were cultured in endothelial cell growth medium 2 (PromoCell, Heidelberg, Germany, cat. C-22011) and the hMSC were cultured in mesenchymal stem cell growth medium 2 (PromoCell, cat. C-28009). For all experiments, HUVEC and hMSC were used at passages </=5, while the malignant cell lines were used at passages </=15. […]

[1] = second compound 0.1 µM, first compound 0.0316 µM
[2] = second compound 0.1 µM, first compound 0.1 µM
[3] = second compound 0.1 µM, first compound 0.316 µM
[4] = second compound 0.1 µM, first compound 1 µM
[5] = second compound 0.1 µM, first compound 3.16 µM
[6] = second compound 0.1 µM, first compound 10 µM
[7] = second compound 0.316 µM, first compound 0.0316 µM
[8] = second compound 0.316 µM, first compound 0.1 µM
[9] = second compound 0.316 µM, first compound 0.316 µM
[10] = second compound 0.316 µM, first compound 1 µM
[11] = second compound 0.316 µM, first compound 3.16 µM
[12] = second compound 0.316 µM, first compound 10 µM
[13] = second compound 1 µM, first compound 0.0316 µM
[14] = second compound 1 µM, first compound 0.1 µM
[15] = second compound 1 µM, first compound 0.316 µM
[16] = second compound 1 µM, first compound 1 µM
[17] = second compound 1 µM, first compound 3.16 µM
[18] = second compound 1 µM, first compound 10 µM
[19] = second compound 3.16 µM, first compound 0.0316 µM
[20] = second compound 3.16 µM, first compound 0.1 µM
[21] = second compound 3.16 µM, first compound 0.316 µM
[22] = second compound 3.16 µM, first compound 1 µM
[23] = second compound 3.16 µM, first compound 3.16 µM
[24] = second compound 3.16 µM, first compound 10 µM
[25] = second compound 10 µM, first compound 0.0316 µM
[26] = second compound 10 µM, first compound 0.1 µM
[27] = second compound 10 µM, first compound 0.316 µM
[28] = second compound 10 µM, first compound 1 µM
[29] = second compound 10 µM, first compound 3.16 µM
[30] = second compound 10 µM, first compound 10 µM
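Also: drug exposure lasted seven days after spheroids formed for three days.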
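For viability, T/C in this document: percent of DMSO vehicle control viability which is 100%.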

Row | Structure (SMILES) | pIC50 (second compound 0.1 µM) | pIC50 (second compound 0.316 µM) | pIC50 (second compound 1 µM) | pIC50 (second compound 3.16 µM) | pIC50 (second compound 10 µM) | viability, T/C [1] | viability, T/C [2] | viability, T/C [3] | viability, T/C [4] | viability, T/C [5] | viability, T/C [6] | viability, T/C [7] | viability, T/C [8] | viability, T/C [9] | viability, T/C [10] | viability, T/C [11] | viability, T/C [12] | viability, T/C [13] | viability, T/C [14] | viability, T/C [15] | further results
1 | COC(=O)c1ccc2c(C(=Nc3ccc(N(C)C(=O)CN4CCN(C)CC4)cc3)c3ccccc3)c(O)[nH]c2c1 + C=CC(=O)N1CCN(c2nc(=O)n(-c3c(C)ccnc3C(C)C)c3nc(-c4c(O)cccc4F)c(F)cc23)C(C)C1 | > 7.50 | > 7.50 | 7.23 | 7.38 | > 7.50 | 44.2% | 39.2% | 30.9% | 18.8% | 11.9% | 0.29% | 48.4% | 40.6% | 25.3% | 20.1% | 5.83% | 0.17% | 56.8% | 43.7% | 29.2% | viability, T/C [16]: 15.8%; viability, T/C [17]: 2.31%; viability, T/C [18]: 0.19%; viability, T/C [19]: 52.8%; viability, T/C [20]: 41.5%; viability, T/C [21]: 25.7%; viability, T/C [22]: 16.9%; viability, T/C [23]: 2.53%; viability, T/C [24]: 0.13%; viability, T/C [25]: 38.1%; viability, T/C [26]: 36.4%; viability, T/C [27]: 24.8%; viability, T/C [28]: 19.2%; viability, T/C [29]: 3.45%; viability, T/C [30]: 0.21%
2 | O=C(c1cc(Cc2n[nH]c(=O)c3ccccc23)ccc1F)N1CCN(C(=O)C2CC2)CC1 + C=CC(=O)N1CCN(c2nc(=O)n(-c3c(C)ccnc3C(C)C)c3nc(-c4c(O)cccc4F)c(F)cc23)C(C)C1 | 5.12 | 5.08 | 5.18 | 5.99 | > 7.50 | 97.8% | 87% | 88% | 84.1% | 76.8% | 41.9% | 90.8% | 82.1% | 79.4% | 85.9% | 75.7% | 45.1% | 77% | 72.3% | 76.2% | viability, T/C [16]: 84.2%; viability, T/C [17]: 62.1%; viability, T/C [18]: 41%; viability, T/C [19]: 64%; viability, T/C [20]: 59.5%; viability, T/C [21]: 56.7%; viability, T/C [22]: 47.5%; viability, T/C [23]: 46.7%; viability, T/C [24]: 38.2%; viability, T/C [25]: 27.3%; viability, T/C [26]: 25.9%; viability, T/C [27]: 28.2%; viability, T/C [28]: 28.9%; viability, T/C [29]: 32%; viability, T/C [30]: 29.1%
